Earlier results in PMC4457528, “Identification of Novel Small Molecule Inhibitors of Oncogenic RET Kinase” (PLoS ONE, 2015).

How the values were obtained:
[1] = system: RET and its gate-keeper mutants; settings: cited from earlier work
[2] = system: RET Y806C; set-up: method as in PMID 15184865, PMID 19029224; settings: cited from earlier work

Structure (SMILES)	inhibition of RET and its gate-keeper mutants [1]	fold increase of in vitro IC50 dose for RET by Y806C [2]
Cc1ccc(C(=O)Nc2ccc(CN3CCN(C)CC3)c(C(F)(F)F)c2)cc1C#Cc1cnc2cccnn12 [ponatinib]	potently inhibits	
COc1cc2c(Nc3ccc(Br)cc3F)ncnc2cc1OCC1CCN(C)CC1 [vandetanib]		10 fold
